Values of other authors as cited in patent publication US9738710B2, “Method of treating a patient for pain by administering an anti-ion channel antibody” (UCB Biopharma SPRL, priority 2009, dated 2017).
Where two headings read alike, the source gives them in different places.

Tests used:
hNav1.5 [1] = target: T1, hNav1.5 (Homo sapiens, UniProt Q14524); details: read-out: FRET-based Assay hNav1.5
hNav1.5 [2] = target: T1, hNav1.5; details: read-out: Electrophysiology hNav1.5
hNav1.7 [3] = target: T2, hNav1.7 (Homo sapiens, UniProt Q15858); details: read-out: Electrophysiology hNav1.7
T2 sequence (Q15858 whole entry): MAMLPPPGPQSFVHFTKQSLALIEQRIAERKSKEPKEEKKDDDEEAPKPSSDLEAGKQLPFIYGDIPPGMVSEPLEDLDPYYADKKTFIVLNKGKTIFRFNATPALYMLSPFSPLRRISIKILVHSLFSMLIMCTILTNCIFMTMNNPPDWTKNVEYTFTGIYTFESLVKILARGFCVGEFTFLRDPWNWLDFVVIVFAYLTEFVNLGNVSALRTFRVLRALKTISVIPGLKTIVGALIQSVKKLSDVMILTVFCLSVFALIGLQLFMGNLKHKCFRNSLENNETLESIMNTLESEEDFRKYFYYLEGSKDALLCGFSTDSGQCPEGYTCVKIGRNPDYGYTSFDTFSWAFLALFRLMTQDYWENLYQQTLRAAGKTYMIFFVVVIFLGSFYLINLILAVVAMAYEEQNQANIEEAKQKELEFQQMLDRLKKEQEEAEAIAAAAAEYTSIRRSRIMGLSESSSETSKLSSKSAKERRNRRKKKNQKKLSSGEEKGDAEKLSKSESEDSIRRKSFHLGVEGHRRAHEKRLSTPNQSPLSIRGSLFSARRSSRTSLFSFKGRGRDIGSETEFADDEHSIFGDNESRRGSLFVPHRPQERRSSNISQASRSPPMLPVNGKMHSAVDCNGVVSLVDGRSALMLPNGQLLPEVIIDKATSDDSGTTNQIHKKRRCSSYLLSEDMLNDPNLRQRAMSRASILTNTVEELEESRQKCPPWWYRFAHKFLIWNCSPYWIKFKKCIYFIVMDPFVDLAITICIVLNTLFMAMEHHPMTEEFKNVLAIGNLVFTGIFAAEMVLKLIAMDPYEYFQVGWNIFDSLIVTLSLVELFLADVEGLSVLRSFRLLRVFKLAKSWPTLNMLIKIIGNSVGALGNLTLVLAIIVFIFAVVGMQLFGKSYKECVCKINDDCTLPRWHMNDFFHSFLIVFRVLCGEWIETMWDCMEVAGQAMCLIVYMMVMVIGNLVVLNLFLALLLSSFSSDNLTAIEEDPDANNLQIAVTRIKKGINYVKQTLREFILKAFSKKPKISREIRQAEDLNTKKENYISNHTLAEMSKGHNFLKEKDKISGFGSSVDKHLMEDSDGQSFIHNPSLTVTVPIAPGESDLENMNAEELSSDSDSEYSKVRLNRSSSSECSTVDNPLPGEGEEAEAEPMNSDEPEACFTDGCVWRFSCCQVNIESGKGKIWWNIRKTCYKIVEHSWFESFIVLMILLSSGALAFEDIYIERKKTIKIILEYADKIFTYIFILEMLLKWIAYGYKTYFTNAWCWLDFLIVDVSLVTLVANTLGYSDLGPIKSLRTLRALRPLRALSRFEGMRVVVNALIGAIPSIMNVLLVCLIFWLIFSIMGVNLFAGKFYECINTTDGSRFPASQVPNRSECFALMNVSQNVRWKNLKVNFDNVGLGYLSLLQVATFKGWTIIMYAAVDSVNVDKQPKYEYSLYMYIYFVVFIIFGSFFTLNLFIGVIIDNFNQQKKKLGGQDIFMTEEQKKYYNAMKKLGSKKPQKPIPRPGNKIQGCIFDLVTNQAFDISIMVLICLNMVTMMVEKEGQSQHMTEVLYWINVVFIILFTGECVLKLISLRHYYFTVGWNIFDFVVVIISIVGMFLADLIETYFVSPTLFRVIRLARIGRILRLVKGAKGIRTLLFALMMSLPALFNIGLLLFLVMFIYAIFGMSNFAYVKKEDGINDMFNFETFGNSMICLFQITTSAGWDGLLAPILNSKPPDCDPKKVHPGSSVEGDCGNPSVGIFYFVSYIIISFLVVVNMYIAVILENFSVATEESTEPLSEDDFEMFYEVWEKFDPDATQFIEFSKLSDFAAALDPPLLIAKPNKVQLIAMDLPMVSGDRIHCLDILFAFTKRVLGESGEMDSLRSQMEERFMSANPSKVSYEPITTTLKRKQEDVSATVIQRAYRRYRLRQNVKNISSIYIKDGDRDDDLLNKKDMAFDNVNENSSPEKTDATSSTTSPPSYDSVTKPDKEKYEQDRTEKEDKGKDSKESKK

hNav1.7 [4] = target: T2, hNav1.7; details: read-out: FRET-based Assay hNav1.7
hNav1.8 = hNav1.8 (Homo sapiens, UniProt Q9Y5Y9); details: read-out: FRET-based Assay hNav1.8
[5] = neuropathic pain patients (Dworkin, 2002)

T1 sequence (Q14524 whole entry): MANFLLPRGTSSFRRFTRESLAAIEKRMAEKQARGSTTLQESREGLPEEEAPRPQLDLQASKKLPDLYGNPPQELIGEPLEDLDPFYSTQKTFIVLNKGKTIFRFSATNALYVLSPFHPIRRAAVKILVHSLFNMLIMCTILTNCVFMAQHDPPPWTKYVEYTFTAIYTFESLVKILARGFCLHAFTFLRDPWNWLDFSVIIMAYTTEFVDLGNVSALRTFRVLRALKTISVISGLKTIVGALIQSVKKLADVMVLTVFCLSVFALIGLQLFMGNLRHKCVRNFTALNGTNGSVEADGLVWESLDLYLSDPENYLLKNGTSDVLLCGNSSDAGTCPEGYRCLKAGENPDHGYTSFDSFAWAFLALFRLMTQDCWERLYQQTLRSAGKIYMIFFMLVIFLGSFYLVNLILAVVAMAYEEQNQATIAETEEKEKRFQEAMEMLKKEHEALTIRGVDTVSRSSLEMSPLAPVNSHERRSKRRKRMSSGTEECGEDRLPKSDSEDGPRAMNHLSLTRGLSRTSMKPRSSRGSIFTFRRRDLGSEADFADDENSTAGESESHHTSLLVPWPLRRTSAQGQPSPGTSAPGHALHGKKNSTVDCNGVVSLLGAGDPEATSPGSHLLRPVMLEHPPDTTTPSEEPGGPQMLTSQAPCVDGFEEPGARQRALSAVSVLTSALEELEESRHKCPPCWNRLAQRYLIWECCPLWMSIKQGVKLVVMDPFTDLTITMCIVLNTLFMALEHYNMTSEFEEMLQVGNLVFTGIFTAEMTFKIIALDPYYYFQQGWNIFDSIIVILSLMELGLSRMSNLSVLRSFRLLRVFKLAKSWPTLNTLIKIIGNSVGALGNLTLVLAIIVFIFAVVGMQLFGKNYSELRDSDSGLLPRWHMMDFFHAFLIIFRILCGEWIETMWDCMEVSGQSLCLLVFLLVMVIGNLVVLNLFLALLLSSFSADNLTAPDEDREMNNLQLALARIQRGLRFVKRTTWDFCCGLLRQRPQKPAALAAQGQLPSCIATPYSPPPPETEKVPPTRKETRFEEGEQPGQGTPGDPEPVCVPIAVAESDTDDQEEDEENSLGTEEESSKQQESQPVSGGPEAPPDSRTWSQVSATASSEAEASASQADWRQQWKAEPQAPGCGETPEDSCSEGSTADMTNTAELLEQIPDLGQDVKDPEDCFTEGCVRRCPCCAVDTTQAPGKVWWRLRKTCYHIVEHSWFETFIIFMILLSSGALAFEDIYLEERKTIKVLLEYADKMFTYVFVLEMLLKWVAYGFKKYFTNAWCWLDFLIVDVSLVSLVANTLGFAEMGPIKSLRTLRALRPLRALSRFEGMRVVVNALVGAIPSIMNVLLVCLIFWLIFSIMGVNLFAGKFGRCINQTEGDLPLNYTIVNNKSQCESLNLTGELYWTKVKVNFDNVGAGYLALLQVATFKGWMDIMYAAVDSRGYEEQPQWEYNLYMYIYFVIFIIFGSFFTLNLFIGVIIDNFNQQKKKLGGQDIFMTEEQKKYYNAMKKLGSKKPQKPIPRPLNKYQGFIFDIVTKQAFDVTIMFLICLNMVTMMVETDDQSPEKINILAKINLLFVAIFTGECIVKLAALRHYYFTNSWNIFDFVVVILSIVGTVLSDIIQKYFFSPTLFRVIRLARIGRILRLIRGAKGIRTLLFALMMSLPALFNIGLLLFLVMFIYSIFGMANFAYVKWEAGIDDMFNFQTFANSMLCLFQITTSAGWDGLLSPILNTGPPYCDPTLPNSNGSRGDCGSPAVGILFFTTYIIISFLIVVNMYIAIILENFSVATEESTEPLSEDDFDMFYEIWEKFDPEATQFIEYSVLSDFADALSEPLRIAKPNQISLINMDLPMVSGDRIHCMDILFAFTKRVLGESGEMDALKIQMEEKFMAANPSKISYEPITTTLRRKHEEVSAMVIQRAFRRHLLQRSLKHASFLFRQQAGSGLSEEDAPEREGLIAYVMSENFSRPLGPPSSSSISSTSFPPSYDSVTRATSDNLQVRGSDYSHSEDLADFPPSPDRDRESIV

| SMILES | IC50 (hNav1.5 [1]) | IC50 (hNav1.5 [2]) | IC50 (hNav1.7 [3]) | IC50 (hNav1.7 [4]) | IC50 (hNav1.8) | reduction of pain [5] | share of patients with that pain reduction [5] |
| --- | --- | --- | --- | --- | --- | --- | --- |
| CC(C)N1C(=O)C(NC(=O)C(Cc2ccccc2F)NC(=O)c2ccc(F)cc2C(F)(F)F)CCc2cc(Cl)ccc21 [N—[(R)-1-(R)-7-chloro-1-isopropyl-2-oxo-2,3,4,5-tetrahydro-1H-benzo[b]azepine-3-ylcarbamoyl)-2-(2-fluorophenyl)-ethyl]-4-fluoro-2-trifluoromethyl-benzamide] | 180 nM | 4.3 µM | 550 nM | 30 nM | 300 nM |  |  |
| NCC1(CC(=O)O)CCCCC1 [gabapentin] |  |  |  |  |  | ≤ 50% | about 40% |
